Reference: US20200207782A1, “CHEMICALLY ACTIVATED WATER-SOLUBLE PRODRUG” (SUMITOMO DAINIPPON PHARMA CO., LTD, priority 2017, published 2020)
Counter-ions that a name gives are not always drawn.

Experiments:
[1] = Solution stability test (residual ratio and generation of active form in buffers of pH 2.0 to 9.0); format: physicochemical; design: Rate of generation of active form after 24 hours in buffer with pH of 7.4: tested at 25 µM; conditions: for Residual ratio: 25 umol/L
Procedure: The test compounds were incubated at 25° C. at a concentration of 25 umol/L in a buffer prepared to have a pH of 2.0, 3.0, 5.0, 7.4, and 9.0. The compounds were measured by HPLC after 0, 3, 6, 9, 12, and 24 hours.
The buffers used at each pH are the following. • pH 2.0: 50 mmol/L glycine buffer • pH 3.0: 50 mmol/L citrate buffer • pH 5.0: 50 mmol/L citrate buffer • pH 7.4: 50 mmol/L phosphate buffer • pH 9.0: 50 mmol/L glycine buffer
The measurement conditions for HPLC are the following.
The yield of the Example and Reference Example compounds and active forms is calculated with each of the peak area of the Example and Reference Example compounds at 0 minutes and the peak area upon dissolution of the corresponding active form at 100 umol/L as 100%. The yield is denoted in terms of %

[2] = Evaluation of conversion rate to active form in human plasma; format: in vitro ADME; conditions: for Measurement value % of test compound (ratio of decrease): 37° C., 10 umol/L
Procedure: (§1) The ratio of decrease of a test compound and the conversion ratio to a corresponding active form (2-acetylthieno[3,2-f][1]benzofuran-4,8-dione) in human plasma and CD1 mouse plasma were measured for Example 1.
(§2) The test compounds were incubated at 37° C. at a concentration of 10 umol/L in human plasma (cat. no. 12250210, Cosmo Bio) and CD1 mouse plasma (cat. no. AP3054, KAC) and retrieved for a given time (0, 5, 10, 30, 60, and 120 minutes) and deproteinized, then analyzed by LC-MS. Acetonitrile comprising each of 10% quantity of 1 mol/L hydrochloric acid, 1% quantity of 46% citric acid, and phenytoin as an internal standard was used for deproteinization.
(§3) LC-MS measurement conditions were the following.
(§4) The yield of the Examples compounds and active form 2-acetylthieno[3,2-f][1]benzofuran-4,8-dione is calculated with each of the peak area of the Example compounds at 0 minutes and the peak area upon dissolution of 2-acetylthieno[3,2-f][1]benzofuran-4,8-dione at 100 umol/L as 100%. The yield is denoted in terms of %.
(§5) In the same manner as Example 1, the conversion ratio to an active form was measured for each of the various test compounds in human plasma and CD1 mouse plasma, with incubation time as 120 minutes. It was confirmed that the series of compounds of the invention was converted to an active form with a small interspecies difference in human plasma and CD1 mouse plasma.
(§6) The yield of the active forms is calculated with the each peak area upon dissolution of the generated active form at 100 umol/L as 100%. The yield is denoted in terms of %.

[3] = Evaluation of conversion rate to active form in CD1 mouse plasma; format: in vitro ADME; conditions: CD1 mouse plasma; for Test compound remaining (% of 0 min peak area): 37° C., 10 umol/L
Procedure: as §1, §2, §3, §4, §5, §6

[4] = Pharmacokinetics test, plasma concentration after intravenous administration; format: in vivo, CD1 (ICR) mice; conditions: mice
Procedure: The concentration of the active form (2-acetylthieno[3,2-f][1]benzofuran-4,8-dione) in plasma was measured for the water-soluble prodrug described in Example 1. The animal species, dosing method, preparation method of a standard solution, and the plasma concentration measurement method are the following.
Animals: 7-week old male CD1 (ICR) mice were used as the experimental animals.
Dosing method: the test sample was weighed and then dissolved in a 50 mmol/L glycine buffered saline (pH 2.0) as the administered solution. The body weight of mice was measured, and the prepared solution was intravenously administered.
Blood collection method: heparin was added to a blood collection tube, and blood was collected from mice. 1% quantity of 46% citric acid was added to the obtained blood, which was centrifuged to give the plasma. 10% quantity of 1 mol/L HCl was added to the collected plasma as the plasma sample. 10% quantity of 1 mol/L HCl added to blank plasma was used as the blank sample. […]
Plasma concentration measurement: 100 ug/mL of standard solution was diluted with an acetonitrile solution to prepare a calibration curve sample with a concentration of interest. […] 180 uL of internal standard containing acetonitrile (containing 1% quantity of 10 mol/L HCl) was added to each of the plasma calibration curve sample and sample for plasma analysis. […]

[5] = physchem; conditions: pH 2, aqueous buffer, thermodynamic from solid
Procedure: The solubility of the water-soluble prodrugs described in the Examples and the Reference Examples was measured. […] The filtrate was measured by HPLC.

**Q.** Which results are given for `CC(=O)c1cc2c(OC(=O)NCCNCC(=O)O)c3ccsc3c(OC(=O)NCCNCC(=O)O)c2o1` [Example 1, 2,2′-[(2-Acetylthieno[3,2-f][1]benzofuran-4,8-diyl)bis(oxycarbonyliminoethane-2,1-diylimino)]diacetic acid dihydrochloride]?
**A.** Residual ratio ([1]; pH2.0 buffer, 25° C., 0 hr): 100%; Residual ratio ([1]; pH2.0 buffer, 25° C., 3 hr): 100%; Residual ratio ([1]; pH2.0 buffer, 25° C., 6 hr): 103%; Residual ratio ([1]; pH2.0 buffer, 25° C., 9 hr): 102%; Residual ratio ([1]; pH2.0 buffer, 25° C., 12 hr): 102%; Residual ratio ([1]; pH2.0 buffer, 25° C., 24 hr): 98.6%; Degradation behaviour in buffers (in words) ([1]; pH 2.0 to 9.0): pH dependent and chemical degradation progressed; Residual ratio ([1]; pH3.0 buffer, 25° C., 0 hr): 99.9%; Residual ratio ([1]; pH3.0 buffer, 25° C., 3 hr): 97.6%; Residual ratio ([1]; pH3.0 buffer, 25° C., 6 hr): 95.3%; Residual ratio ([1]; pH3.0 buffer, 25° C., 9 hr): 95.6%; Residual ratio ([1]; pH3.0 buffer, 25° C., 12 hr): 90.9%; Residual ratio ([1]; pH3.0 buffer, 25° C., 24 hr): 86.9%; Residual ratio ([1]; pH5.0 buffer, 25° C., 0 hr): 85.1%; Residual ratio ([1]; pH5.0 buffer, 25° C., 3 hr): 6.6%; Residual ratio ([1]; pH5.0 buffer, 25° C., 6 hr): 3.9%; Residual ratio ([1]; pH5.0 buffer, 25° C., 9 hr, dihydrochloride): 0%; Residual ratio ([1]; pH5.0 buffer, 25° C., 12 hr): 0.0%; Residual ratio ([1]; pH5.0 buffer, 25° C., 24 hr): 0.0%; Residual ratio ([1]; pH7.4 buffer, 25° C., 0 hr, dihydrochloride): 0%; Residual ratio ([1]; pH7.4 buffer, 25° C., 3 hr): 0.0%; Residual ratio ([1]; pH7.4 buffer, 25° C., 6 hr): 0.0%; Residual ratio ([1]; pH7.4 buffer, 25° C., 9 hr): 0.0%; Residual ratio ([1]; pH7.4 buffer, 25° C., 12 hr): 0.0%; Residual ratio ([1]; pH7.4 buffer, 25° C., 24 hr): 0.0%; Rate of generation of active form after 24 hours in buffer with pH of 7.4 ([1]; pH 7.4 buffer, 24 hours, 25° C.): 92%; Residual ratio ([1]; pH9.0 buffer, 25° C., 0 hr, dihydrochloride): 0%; Residual ratio ([1]; pH9.0 buffer, 25° C., 3 hr): 0.0%; Residual ratio ([1]; pH9.0 buffer, 25° C., 6 hr): 0.0%; Residual ratio ([1]; pH9.0 buffer, 25° C., 9 hr): 0.0%; Residual ratio ([1]; pH9.0 buffer, 25° C., 12 hr): 0.0%; Residual ratio ([1]; pH9.0 buffer, 25° C., 24 hr): 0.0%; Stability in solution (in words) ([1]; pH of 2.0, 25° C.): very stable; Stability in solution (in words) ([1]; pH of 3.0, 25° C.): sufficiently stable; Degradation in plasma (in words) ([2]; human plasma): quickly progressed; Interspecies difference of conversion to active form (in words) ([2]; human plasma versus CD1 mouse plasma): interspecies difference was small; Measurement value % of test compound (ratio of decrease) ([2]; human plasma, 0 minutes): 100%; Measurement value % of test compound (ratio of decrease) ([2]; human plasma, 5 minutes): 0.0%; Measurement value % of test compound (ratio of decrease) ([2]; human plasma, 10 minutes): 0.0%; Measurement value % of test compound (ratio of decrease) ([2]; human plasma, 30 minutes): 0.0%; Measurement value % of test compound (ratio of decrease) ([2]; human plasma, 60 minutes): 0.0%; Measurement value % of test compound (ratio of decrease) ([2]; human plasma, 120 minutes): 0.0%; Degradation in plasma (in words) [3]: quickly progressed; Test compound remaining (% of 0 min peak area) ([3]; 0 minutes): 100%; Test compound remaining (% of 0 min peak area) ([3]; 5 minutes): 0.11%; Test compound remaining (% of 0 min peak area) ([3]; 10 minutes): 0.01%; Test compound remaining (% of 0 min peak area) ([3]; 30 minutes): 0.01%; Test compound remaining (% of 0 min peak area) ([3]; 60 minutes): 0.01%; Test compound remaining (% of 0 min peak area) ([3]; 120 minutes): 0.08%; Generation of active form after intravenous administration (in words) [4]: quickly generated; solubility at 24 h [5]: > 10000 µg/mL
